# From article PMC9363195, “Preclinical Pharmacokinetics, Biodistribution, and Acute Toxicity Evaluation of Caerin 1.9 Peptide in Sprague Dawley Rats” (Evidence-based Complementary and Alternative Medicine : eCAM, 2022)
# Peptide text beside a SMILES is read from it.
# Tested on: SD rats
# Test: Gross necropsy and weight of vital organs in acute toxicity study
# Format: in vivo, Sprague Dawley rats
# Settings: for Adrenals, absolute weight / Body weight / Brain, absolute weight / Heart, absolute weight / Kidneys, absolute weight / Liver, absolute weight / Ovaries, absolute weight / Spleen, absolute weight / Thymus, absolute weight / Thyroid, absolute weight / Uterus, absolute weight / Epididymides, absolute weight / Testis, absolute weight: day 15, mean ± SD
# Procedure: Forty SD rats (20 males and 20 females) were randomly divided into 4 groups (Figure 1). All rats were given F3 once on the day of the experiment.
# Twelve SD rats (6 males, 6 females) were given a daily subcutaneous injection of F3 at a dose of 10.0 mg/kg for consecutive 14 days. The first day of administration was recorded as day 1.
# For 14 days, the body weight was measured before F3 administration on the first day of the experiment and once a week thereafter, with additional measurements on the day before and on the day of the planned autopsy. Food intake was recorded once a week. The rats were anesthetized by inhalation of 70% CO2/30% O2 before dissection, and blood samples were taken for hematology and biochemical analysis. The collected tissue was weighed and preserved for pathological examination.
# After blood was collected at the predetermined time points, all rats were euthanized and subjected to a comprehensive general autopsy, which included a thorough examination of the external surface of the body, all foramen, cranial cavity, external surface of the brain, chest, abdomen, pelvic cavity, viscera, cervix, and genitalia. The adrenal gland, brain (brain, cerebellum, and brain stem), epididymis, heart, kidney, liver, ovary, spleen, testis, thymus, thyroid gland, and uterus were carefully collected, weighed, and documented before being kept in 10% neutral formalin buffer (10% NBF).
# [1] = female SD rats, s.c. 10.0 mg/kg daily x14 d, n=6
# [2] = female SD rats, single s.c. 1.0 mg/kg, n=5
# [3] = female SD rats, single s.c. 10.0 mg/kg, n=5
# [4] = female SD rats, single s.c. 100.0 mg/kg, n=5
# [5] = male SD rats, s.c. 10.0 mg/kg daily x14 d, n=6
# [6] = male SD rats, single s.c. 1.0 mg/kg, n=5
# [7] = male SD rats, single s.c. 10.0 mg/kg, n=5
# [8] = male SD rats, single s.c. 100.0 mg/kg, n=5
structure (smiles),measurement,setting,value
"CC[C@H](C)[C@H](NC(=O)[C@H](CO)NC(=O)CNC(=O)[C@H](CC(C)C)NC(=O)[C@@H](NC(=O)CNC(=O)[C@H](Cc1ccccc1)NC(=O)[C@H](CC(C)C)NC(=O)CN)C(C)C)C(=O)N[C@@H](C)C(=O)N[C@@H](CCCCN)C(=O)N[C@@H](Cc1c[nH]cn1)C(=O)N[C@H](C(=O)N[C@@H](CC(C)C)C(=O)N1CCC[C@H]1C(=O)N[C@@H](Cc1c[nH]cn1)C(=O)N[C@H](C(=O)N[C@H](C(=O)N1CCC[C@H]1C(=O)N[C@H](C(=O)N[C@H](C(=O)N[C@@H](C)C(=O)N[C@@H](CCC(=O)O)C(=O)N[C@@H](CCCCN)C(=O)N[C@@H](CC(C)C)C(N)=O)[C@@H](C)CC)C(C)C)C(C)C)C(C)C)C(C)C [F3, Caerin 1.9] (H-GLFGVLGSIAKHVLPHVVPVIAEKL-NH2)",gross necropsy findings,"SD rats, s.c. 10.0 mg/kg daily x14 d, all rats",diffuse subcutaneous bleeding at the injection site
same,influence on absolute and relative organ weight,"SD rats, single or repeated s.c. injections",no influence
same,gross necropsy findings,"SD rats, single s.c. 100.0 mg/kg",skin scab and thickening at the administration site in all male rats and four female rats
same,"Adrenals, absolute weight",[1],0.0793 ± 0.0101 g
same,Body weight,[1],233.55 ± 16.03 g
same,"Brain, absolute weight",[1],1.9517 ± 0.0244 g
same,"Heart, absolute weight",[1],1.1247 ± 0.1287 g
same,"Kidneys, absolute weight",[1],1.7017 ± 0.123 g
same,"Liver, absolute weight",[1],7.5278 ± 0.6229 g
same,"Ovaries, absolute weight",[1],0.093 ± 0.0151 g
same,"Spleen, absolute weight",[1],0.6908 ± 0.0750 g
same,"Thymus, absolute weight",[1],0.427 ± 0.0886 g
same,"Thyroid, absolute weight",[1],0.0242 ± 0.0053 g
same,"Uterus, absolute weight",[1],0.4797 ± 0.1336 g
same,"Adrenals, absolute weight",[2],0.0728 ± 0.0097 g
same,Body weight,[2],238.86 ± 7.94 g
same,"Brain, absolute weight",[2],2.0504 ± 0.0552 g
same,"Heart, absolute weight",[2],1.1086 ± 0.1559 g
same,"Kidneys, absolute weight",[2],1.9364 ± 0.118 g
same,"Liver, absolute weight",[2],7.7464 ± 0.2893 g
same,"Ovaries, absolute weight",[2],0.1036 ± 0.0242 g
same,"Spleen, absolute weight",[2],0.57 ± 0.1214 g
same,"Thymus, absolute weight",[2],0.5216 ± 0.0746 g
same,"Thyroid, absolute weight",[2],0.0282 ± 0.0029 g
same,"Uterus, absolute weight",[2],0.6212 ± 0.0948 g
same,"Adrenals, absolute weight",[3],0.0758 ± 0.0114 g
same,Body weight,[3],243.48 ± 10.53 g
same,"Brain, absolute weight",[3],2.0232 ± 0.044 g
same,"Heart, absolute weight",[3],0.999 ± 0.0943 g
same,"Kidneys, absolute weight",[3],1.8596 ± 0.1438 g
same,"Liver, absolute weight",[3],7.3692 ± 0.709 g
same,"Ovaries, absolute weight",[3],0.096 ± 0.0182 g
same,"Spleen, absolute weight",[3],0.5508 ± 0.0854 g
same,"Thymus, absolute weight",[3],0.535 ± 0.0762 g
same,"Thyroid, absolute weight",[3],0.0338 ± 0.005 g
same,"Uterus, absolute weight",[3],0.4664 ± 0.1167 g
same,"Adrenals, absolute weight",[4],0.076 ± 0.0116 g
same,Body weight,[4],238.86 ± 9.44 g
same,"Brain, absolute weight",[4],1.9918 ± 0.0665 g
same,"Heart, absolute weight",[4],1.0914 ± 0.0821 g
same,"Kidneys, absolute weight",[4],1.924 ± 0.0685 g
same,"Liver, absolute weight",[4],7.8582 ± 0.5028 g
same,"Ovaries, absolute weight",[4],0.108 ± 0.0223 g
same,"Spleen, absolute weight",[4],0.545 ± 0.0571 g
same,"Thymus, absolute weight",[4],0.478 ± 0.0725 g
same,"Thyroid, absolute weight",[4],0.0344 ± 0.0057 g
same,"Uterus, absolute weight",[4],0.5842 ± 0.0922 g
same,"Adrenals, absolute weight",[5],0.0612 ± 0.0041 g
same,Body weight,[5],342.57 ± 13.86 g
same,"Brain, absolute weight",[5],2.062 ± 0.1162 g
same,"Epididymides, absolute weight",[5],1.0408 ± 0.0584 g
same,"Heart, absolute weight",[5],1.5727 ± 0.082 g
same,"Kidneys, absolute weight",[5],2.5043 ± 0.0600 g
same,"Liver, absolute weight",[5],9.9218 ± 0.6297 g
same,"Spleen, absolute weight",[5],0.741 ± 0.1802 g
same,"Testis, absolute weight",[5],3.3857 ± 0.1596 g
same,"Thymus, absolute weight",[5],0.4433 ± 0.0724 g
same,"Thyroid, absolute weight",[5],0.0358 ± 0.0092 g
same,"Adrenals, absolute weight",[6],0.0564 ± 0.0078 g
same,Body weight,[6],380.74 ± 8.63 g
same,"Brain, absolute weight",[6],2.163 ± 0.0999 g
same,"Epididymides, absolute weight",[6],0.9464 ± 0.0677 g
same,"Heart, absolute weight",[6],1.485 ± 0.1408 g
same,"Kidneys, absolute weight",[6],2.8174 ± 0.3469 g
same,"Liver, absolute weight",[6],11.4326 ± 0.5122 g
same,"Spleen, absolute weight",[6],0.7378 ± 0.14 g
same,"Testis, absolute weight",[6],3.328 ± 0.2025 g
same,"Thymus, absolute weight",[6],0.545 ± 0.1054 g
same,"Thyroid, absolute weight",[6],0.0494 ± 0.0051 g
same,"Adrenals, absolute weight",[7],0.0654 ± 0.0073 g
same,Body weight,[7],397.34 ± 21.46 g
same,"Brain, absolute weight",[7],2.181 ± 0.1198 g
same,"Epididymides, absolute weight",[7],0.9564 ± 0.0348 g
same,"Heart, absolute weight",[7],1.728 ± 0.2013 g
same,"Kidneys, absolute weight",[7],3.151 ± 0.1131 g
same,"Liver, absolute weight",[7],12.5468 ± 0.8106 g
same,"Spleen, absolute weight",[7],0.8204 ± 0.1012 g
same,"Testis, absolute weight",[7],3.2666 ± 0.0813 g
same,"Thymus, absolute weight",[7],0.6256 ± 0.1022 g
same,"Thyroid, absolute weight",[7],0.0498 ± 0.0093 g
same,"Adrenals, absolute weight",[8],0.066 ± 0.0075 g
same,Body weight,[8],394.58 ± 14.44 g
same,"Brain, absolute weight",[8],2.1528 ± 0.0816 g
same,"Epididymides, absolute weight",[8],0.9956 ± 0.0459 g
same,"Heart, absolute weight",[8],1.6352 ± 0.0401 g
same,"Kidneys, absolute weight",[8],2.9858 ± 0.1294 g
same,"Liver, absolute weight",[8],12.2242 ± 0.7073 g
same,"Spleen, absolute weight",[8],0.793 ± 0.109 g
same,"Testis, absolute weight",[8],3.4182 ± 0.3029 g
same,"Thymus, absolute weight",[8],0.6608 ± 0.082 g
same,"Thyroid, absolute weight",[8],0.0482 ± 0.0075 g
